The source of these data is patent publication US20190119298A1, “FUSED 3-PHENYLTETRAMIC ACID DERIVATIVES HAVING HERBICIDAL ACTION” (Bayer CropScience Aktiengesellschaft, priority 2016, published 2019).

Common to all, as to format: in vivo
The test system of one assay is Lolium multiflorum. The assay is described as follows: Pre-emergence herbicidal effect. The settings on record: 320 g/ha, scored visually after 3 weeks vs untreated controls, 100% = plants have died. The text has this:
(§1) Seeds of monocotyledonous and dicotyledonous weed plants and crop plants are laid out in sandy loam soil in wood-fibre pots and covered with soil. The compounds of the invention, formulated in the form of wettable powders (WP) or as emulsion concentrates (EC), are then applied to the surface of the covering soil as aqueous suspension or emulsion at a water application rate equating to 600 to 800 L/ha with addition of 0.2% wetting agent. After the treatment, the pots are placed in a greenhouse and kept under good growth conditions for the trial plants. The damage to the test plants is scored visually after a test period of 3 weeks by comparison with untreated controls (herbicidal activity in percent (%): 100% activity=the plants have died, 0% activity=like control plants). LOLMU: Lolium multiflorum

The test system of another assay is Alopecurus myosuroides. The assay is described as follows: Pre-emergence herbicidal effect. The settings on record: 320 g/ha, scored visually after 3 weeks vs untreated controls, 100% = plants have died.
Text: as §1, with “ALOMY: Alopecurus myosuroides” for “LOLMU: Lolium multiflorum”

Assay [1] deals with Echinochloa crus-galli. The assay is described as follows: Post-emergence herbicidal effect. The settings on record: one-leaf stage, 320 g/ha, assessed visually after about 3 weeks, 100% = plants have died. As to the method:
(§2) ECHCG: Echinochloa crus-galli Seeds of monocotyledonous and dicotyledonous weed and crop plants are laid out in sandy loam soil in wood-fibre pots, covered with soil and cultivated in a greenhouse under good growth conditions. 2 to 3 weeks after sowing, the test plants are treated at the one-leaf stage. The compounds of the invention, formulated in the form of wettable powders (WP) or as emulsion concentrates (EC), are then sprayed onto the green parts of the plants as aqueous suspension or emulsion at a water application rate equating to 600 to 800 L/ha with addition of 0.2% wetting agent. After the test plants have been left to stand in the greenhouse under optimal growth conditions for about 3 weeks, the action of the preparations is assessed visually in comparison to untreated controls (herbicidal action in percent (%): 100% activity=the plants have died, 0% activity=like control plants).

In assay [2] the test system is Setaria viridis. The assay is described as follows: Post-emergence herbicidal effect. The settings on record: one-leaf stage, 320 g/ha, assessed visually after about 3 weeks, 100% = plants have died. On the procedure:
as §2, with “SETVI: Setaria viridis” for “ECHCG: Echinochloa crus-galli”

Assay [3] concerns Echinochloa crus-galli. Kind of assay: Pre-emergence herbicidal effect. The conditions noted are these: 320 g/ha, scored visually after 3 weeks vs untreated controls, 100% = plants have died.
Text: as §1, with “ECHCG: Echinochloa crus-galli” for “LOLMU: Lolium multiflorum”

The subject of the next assay is Avena fatua. The assay is described as follows: Pre-emergence herbicidal effect. The conditions noted are these: 320 g/ha, scored visually after 3 weeks vs untreated controls, 100% = plants have died.
Text: as §1, with “AVEFA: Avena fatua” for “LOLMU: Lolium multiflorum”

Assay [4] relates to Setaria viridis. Kind of assay: Pre-emergence herbicidal effect. The conditions noted are these: 320 g/ha, scored visually after 3 weeks vs untreated controls, 100% = plants have died.
Text: as §1, with “SETVI: Setaria viridis” for “LOLMU: Lolium multiflorum”

With `COc1cc(C)cc(Cl)c1C1=C(O)C2CCOCCN2C1=O` (stereo not shown) [Ia-1-8], the “Pre-emergence action LOLMU (herbicidal activity in percent)” value with Lolium multiflorum is listed as 100%. For the same compound, in the assay on Alopecurus myosuroides, the “Pre-emergence action ALOMY (herbicidal activity in percent)” value was 90%.
Take `CCc1cc(C)cc(CC)c1C1=C(O)C2=CCOCCN2C1=O` [Ia-3-3]: the “Post-emergence effectiveness ECHCG (herbicidal action in percent)” value with Echinochloa crus-galli [1] came to 100%. Further, in the assay on Lolium multiflorum, the “Pre-emergence action LOLMU (herbicidal activity in percent)” value is 100%. Besides, the “Pre-emergence action ALOMY (herbicidal activity in percent)” value with Alopecurus myosuroides stood at 80%. Further, the “Post-emergence effectiveness SETVI (herbicidal action in percent)” value in the assay with Setaria viridis [2] amounted to 100%.
As to `CCc1cc(C)cc(CC)c1C1=C(OC(=O)OCCOC)C2CCOCCN2C1=O` (stereo not shown) [Ib-1-5], in the assay on Echinochloa crus-galli [3], the “Pre-emergence action ECHCG (herbicidal activity in percent)” value is given as 100%. The “Pre-emergence action AVEFA (herbicidal activity in percent)” value in the assay with Avena fatua worked out at 100%. The “Pre-emergence action LOLMU (herbicidal activity in percent)” value in the assay on Lolium multiflorum is on record as 100%. Besides, the “Pre-emergence action ALOMY (herbicidal activity in percent)” value in the assay on Alopecurus myosuroides is recorded as 100%. Moreover, the “Pre-emergence action SETVI (herbicidal activity in percent)” value with Setaria viridis [4] was found to be 100%.
For `COC(=O)OC1=C(c2c(Cl)cc(C)cc2OC)C(=O)N2CCOCCC12` (stereo not shown) [Ib-1-21], the “Pre-emergence action ECHCG (herbicidal activity in percent)” value in the assay with Echinochloa crus-galli [3] was 100%. Moreover, in the assay on Avena fatua, the “Pre-emergence action AVEFA (herbicidal activity in percent)” value came to 90%. For the same compound, the “Pre-emergence action LOLMU (herbicidal activity in percent)” value in the assay with Lolium multiflorum worked out at 100%. In addition, the “Pre-emergence action ALOMY (herbicidal activity in percent)” value in the assay on Alopecurus myosuroides is reported as 100%. Also, the “Pre-emergence action SETVI (herbicidal activity in percent)” value in the assay on Setaria viridis [4] stood at 100%.
In the case of `CCOC(=O)OC1=C(c2c(Cl)cc(C)cc2OC)C(=O)N2CCOCCC12` (stereo not shown) [Ib-1-22], the “Pre-emergence action ECHCG (herbicidal activity in percent)” value in the assay with Echinochloa crus-galli [3] came to 100%. In addition, the “Pre-emergence action AVEFA (herbicidal activity in percent)” value with Avena fatua is given as 100%. In addition, in the assay on Lolium multiflorum, the “Pre-emergence action LOLMU (herbicidal activity in percent)” value is reported as 100%. Also, the “Pre-emergence action ALOMY (herbicidal activity in percent)” value in the assay with Alopecurus myosuroides is 90%. Besides, the “Pre-emergence action SETVI (herbicidal activity in percent)” value in the assay on Setaria viridis [4] is reported as 100%.
As for `COc1cc(C)cc(Cl)c1C1=C(OC(=O)C(C)(C)C)C2CCOCCN2C1=O` (stereo not shown) [Ib-1-23], in the assay on Echinochloa crus-galli [3], the “Pre-emergence action ECHCG (herbicidal activity in percent)” value amounted to 100%. Also, the “Pre-emergence action AVEFA (herbicidal activity in percent)” value with Avena fatua is given as 90%. Besides, the “Pre-emergence action LOLMU (herbicidal activity in percent)” value with Lolium multiflorum was 100%. The “Pre-emergence action ALOMY (herbicidal activity in percent)” value in the assay with Alopecurus myosuroides turned out to be 100%. In the assay on Setaria viridis [4], the “Pre-emergence action SETVI (herbicidal activity in percent)” value was 100%.
With `COc1cc(C)cc(Cl)c1C1=C(OC(C)=O)C2CCOCCN2C1=O` (stereo not shown) [Ib-1-24], in the assay with Echinochloa crus-galli [3], the “Pre-emergence action ECHCG (herbicidal activity in percent)” value is on record as 100%. Moreover, in the assay with Avena fatua, the “Pre-emergence action AVEFA (herbicidal activity in percent)” value came to 90%. In addition, the “Pre-emergence action LOLMU (herbicidal activity in percent)” value with Lolium multiflorum is 100%. Besides, the “Pre-emergence action ALOMY (herbicidal activity in percent)” value in the assay on Alopecurus myosuroides turned out to be 90%. Also, in the assay on Setaria viridis [4], the “Pre-emergence action SETVI (herbicidal activity in percent)” value was found to be 100%.
Turning to `CCOC(=O)OC1=C(c2ccc(C)cc2OC)C(=O)N2CCOCCC12` (stereo not shown) [Ib-1-26], the “Pre-emergence action LOLMU (herbicidal activity in percent)” value in the assay with Lolium multiflorum worked out at 90%. Moreover, in the assay with Alopecurus myosuroides, the “Pre-emergence action ALOMY (herbicidal activity in percent)” value came out at 90%.
As to `CC(=O)OC1=C(c2c(C)cc(C)cc2C)C(=O)N2CCCOCC12` (stereo not shown) [Ib-2-1], the “Post-emergence effectiveness ECHCG (herbicidal action in percent)” value in the assay on Echinochloa crus-galli [1] came out at 100%. Besides, the “Post-emergence effectiveness SETVI (herbicidal action in percent)” value with Setaria viridis [2] is given as 100%.
For the compound `COC(=O)OC1=C(c2c(C)cc(C)cc2C)C(=O)N2CCCOCC12` (stereo not shown) [Ib-2-2], the “Post-emergence effectiveness ECHCG (herbicidal action in percent)” value in the assay on Echinochloa crus-galli [1] came out at 90%. In addition, in the assay on Setaria viridis [2], the “Post-emergence effectiveness SETVI (herbicidal action in percent)” value was determined as 90%.
`CCOC(=O)OC1=C(c2c(C)cc(C)cc2C)C(=O)N2CCCOCC12` (stereo not shown) [Ib-2-3]: the “Post-emergence effectiveness ECHCG (herbicidal action in percent)” value with Echinochloa crus-galli [1] stood at 90%. Further, in the assay with Setaria viridis [2], the “Post-emergence effectiveness SETVI (herbicidal action in percent)” value is reported as 90%.
Take `Cc1cc(C)c(C2=C(OC(=O)C(C)(C)C)C3COCCCN3C2=O)c(C)c1` (stereo not shown) [Ib-2-4]: the “Post-emergence effectiveness ECHCG (herbicidal action in percent)” value with Echinochloa crus-galli [1] came out at 90%. In addition, in the assay with Setaria viridis [2], the “Post-emergence effectiveness SETVI (herbicidal action in percent)” value is recorded as 100%.
Take `CCc1cc(C)cc(CC)c1C1=C(OC(=O)OC)C2COCCCN2C1=O` (stereo not shown) [Ib-2-5]: the “Post-emergence effectiveness ECHCG (herbicidal action in percent)” value in the assay on Echinochloa crus-galli [1] is 100%. In the assay with Setaria viridis [2], the “Post-emergence effectiveness SETVI (herbicidal action in percent)” value came to 100%.
Regarding `CCOC(=O)OC1=C(c2c(CC)cc(C)cc2CC)C(=O)N2CCCOCC12` (stereo not shown) [Ib-2-6], the “Post-emergence effectiveness ECHCG (herbicidal action in percent)” value in the assay with Echinochloa crus-galli [1] worked out at 100%. For the same compound, the “Post-emergence effectiveness SETVI (herbicidal action in percent)” value with Setaria viridis [2] is 100%.
For the compound `CCOC(=O)OC1=C(c2c(CC)cc(C)cc2CC)C(=O)N2CCOCC=C12` [Ib-3-2], in the assay on Echinochloa crus-galli [1], the “Post-emergence effectiveness ECHCG (herbicidal action in percent)” value is recorded as 80%. The “Post-emergence effectiveness SETVI (herbicidal action in percent)” value in the assay with Setaria viridis [2] stood at 90%.
With `CCc1cc(C)cc(CC)c1C1=C(OC(=O)C(C)(C)C)C2=CCOCCN2C1=O` [Ib-3-3], in the assay on Echinochloa crus-galli [1], the “Post-emergence effectiveness ECHCG (herbicidal action in percent)” value is on record as 90%. The “Post-emergence effectiveness SETVI (herbicidal action in percent)” value in the assay with Setaria viridis [2] is on record as 100%.
Consider `CCc1cc(C)cc(C)c1C1=C(OC(=O)OC)C2=CCOCCN2C1=O` [Ib-3-5], for which the “Post-emergence effectiveness ECHCG (herbicidal action in percent)” value with Echinochloa crus-galli [1] was determined as 90%. In addition, the “Pre-emergence action LOLMU (herbicidal activity in percent)” value in the assay on Lolium multiflorum amounted to 80%. Besides, the “Pre-emergence action ALOMY (herbicidal activity in percent)” value in the assay on Alopecurus myosuroides amounted to 100%. Also, the “Post-emergence effectiveness SETVI (herbicidal action in percent)” value with Setaria viridis [2] is 90%.
As for `CCOC(=O)OC1=C(c2c(C)cc(C)cc2CC)C(=O)N2CCOCC=C12` [Ib-3-6], the “Post-emergence effectiveness ECHCG (herbicidal action in percent)” value in the assay with Echinochloa crus-galli [1] worked out at 90%. Moreover, the “Post-emergence effectiveness SETVI (herbicidal action in percent)” value in the assay with Setaria viridis [2] is given as 90%.
For `CCc1cc(C)cc(C)c1C1=C(OC(=O)C(C)(C)C)C2=CCOCCN2C1=O` [Ib-3-7], in the assay on Echinochloa crus-galli [1], the “Post-emergence effectiveness ECHCG (herbicidal action in percent)” value stood at 90%. Moreover, the “Post-emergence effectiveness SETVI (herbicidal action in percent)” value with Setaria viridis [2] came out at 100%.
With `CCOC(=O)OC1=C(c2c(CC)cc(Cl)cc2OC)C(=O)N2CCOCC=C12` [Ib-3-9], the “Post-emergence effectiveness ECHCG (herbicidal action in percent)” value in the assay on Echinochloa crus-galli [1] is 90%. Further, the “Post-emergence effectiveness SETVI (herbicidal action in percent)” value with Setaria viridis [2] turned out to be 100%.
Taken in the same sequence, the figures for `CCOC(=O)OC1=C(c2c(C)cc(Br)cc2C)C(=O)N2CCOCC=C12` [Ib-3-11] were 80% and 90%.
On to `COc1cc(C)cc(Cl)c1C1=C(OC(C)=O)C2=CCOCCN2C1=O` [Ib-3-13], for which the “Pre-emergence action ECHCG (herbicidal activity in percent)” value in the assay with Echinochloa crus-galli [3] is reported as 100%. In addition, the “Pre-emergence action AVEFA (herbicidal activity in percent)” value in the assay with Avena fatua came to 90%. In addition, in the assay on Lolium multiflorum, the “Pre-emergence action LOLMU (herbicidal activity in percent)” value worked out at 100%. Moreover, the “Pre-emergence action ALOMY (herbicidal activity in percent)” value with Alopecurus myosuroides came out at 100%. Further, the “Pre-emergence action SETVI (herbicidal activity in percent)” value in the assay with Setaria viridis [4] turned out to be 100%.
Regarding `COc1cc(C)cc(Cl)c1C1=C(OC(=O)C(C)(C)C)C2=CCOCCN2C1=O` [Ib-3-16], the “Pre-emergence action ECHCG (herbicidal activity in percent)” value in the assay with Echinochloa crus-galli [3] amounted to 80%. Also, in the assay on Lolium multiflorum, the “Pre-emergence action LOLMU (herbicidal activity in percent)” value came out at 90%. The “Pre-emergence action ALOMY (herbicidal activity in percent)” value in the assay on Alopecurus myosuroides came to 90%. For the same compound, the “Pre-emergence action SETVI (herbicidal activity in percent)” value with Setaria viridis [4] was determined as 90%.
